Source: patent US12527773B2, “Flavi-block: a pan-flavivirus inhibitor” (Baden-Württemberg Stiftung GmbH, priority 2020, dated 2026)
Where two headings read alike, the source gives them in different places.

Legend:
FluAV = test: IC50 in established virological assays (Table 1), FluAV; assay type: cell-based; conditions: Influenza A virus
KUNV (MRM61C strain) = test: Plaque assay of released virus, KUNV-infected Vero cells; assay type: cell-based, Kunjin virus; conditions: West Nile virus
Experimental: (§1) Vero cells were infected with KUNV at an MOI of 1 for 2 h (post infection), after which virus was removed, and fresh maintenance medium containing 2% FCS together with the indicated concentration of C10 added. For co-treat condition, Vero cells were infected with KUNV at an MOI of 1 in the presence of C10 for 2 h, followed by removal of the virus/C10 inoculums, and addition of fresh 2% fetal calf serum maintenance medium.
(§2) Vero and BHK-21 cells were maintained in DMEM media supplemented with 10% heat-inactivated FBS at 37° C. in a humidified incubator supplemented with 5% CO2; A549 cells were maintained in F-12K medium supplemented with 10% heat-inactivated Fetal Bovine Serum (FBS), 2 mM L-glutamine, 50 U/I penicillin, 0.05 mg/l streptomycin. DENV-1-4 strains, cell culture conditions and Gen-Bank accession numbers, as well as details of RSV strains and culture are known in the art. […] Viral titer was subsequently determined by plaque assay (see below).
(§3) Vero cells were seeded into 24-well plates at a density of 2×10^5 cells/well and grown overnight in culture medium at 37° C. with 5% CO2 prior to infection with RSV, KUNV, ZIKV as indicated. BHK-21 cells were used for DENV1-4. […] The stain was removed by rinsing the cells with tap water, and the viral plaques were counted visually. […]

[1] = tested on: ZIKV (Asian/Cook Islands/2014); test: Plaque assay of released virus, ZIKV-infected Vero cells; assay type: cell-based; conditions: Zika virus
Experimental: as §1, with “ZIKV” for “KUNV”, “medium. […] Results represent the mean ±SD for duplicate wells from a single assay (cf. Table 2 for pooled data).” for “medium.”
as §2, §3

RSV = test: RT-qPCR analysis of virus genomes, RSV; assay type: cell-based; conditions: human respiratory syncytial virus, c.t., read-out: EC50 from RT-qPCR analysis
From the text: Viral RNA was extracted using Isolate II RNA extraction kit (Bioline), and the absolute number of RNA copies determined by Taqman One Step RT-qPCR (Applied Biosystems) by extrapolation from a standard curve generated from in vitro—transcribed virus RNA.
It was decided to test the ability of C10 to inhibit the flaviviruses DENV1-4, KUNV and ZIKV, in addition to the paramyxovirus RSV, as a control.

## CCN1/C(=C\C=C\c2sc3cc(NC(C)=O)ccc3[n+]2CC)Sc2cc(NC(C)=O)ccc21.[I-] [C10, 6-acetamido-2-((1E,3E)-3-(6-acetamido-3-ethylbenzo[d]thiazol-2(3H)-ylidene)prop-1-en-1-yl)-3-ethylbenzo[d]thiazol-3-ium iodide]
FluAV
  IC50: ~5000 nM
KUNV (MRM61C strain); read-out: EC50 from plaque assays, KUNV, c.t.
  EC50: 50 nM
KUNV (MRM61C strain); read-out: EC50 from plaque assays, KUNV, p.i.
  EC50: 420 nM
[1]; read-out: EC50 from plaque assays, ZIKV, c.t.
  EC50: 90 nM
[1]; read-out: EC50 from plaque assays, ZIKV, p.i.
  EC50: 210 nM
RSV
  EC50: 830 ± 970 nM
